For experiment [1], the target named is Human CB1R (Cannabinoid receptor 1) (Homo sapiens, UniProt P21554). Put plainly: CB-1 in vitro cAMP (HTRF) assay. Type of experiment: cell-based. The following applies: HEK cells, cAMP HTRF, 250 nM forskolin; mean where tested more than once; read-out: CB1 HEK_cAMP EC50. In outline:
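Intracellular cAMP from HTRF ratio (d2-cAMP vs Eu-cryptate anti-cAMP), converted to nM via per-plate standards, in stable human CB1R HEK-293 cells.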

The target in experiment [2] is Human CB2R (Cannabinoid receptor 2) (Homo sapiens, UniProt P34972). Put plainly: CB-2 in vitro cAMP (HTRF) assay. Type of experiment: cell-based. The following applies: HEK cells, cAMP HTRF, 250 nM forskolin; mean where tested more than once; read-out: CB2 HEK_cAMP EC50. The method, boiled down: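 HEK-293 cells stably expressing receptor, plated overnight at 4E5 cells/mL, tested with 1/3 serial dilutions of compound in HBSS/HEPES/BSA buffer with 0.5 mM IBMX and forskolin (diluted to 1.5 μM in buffer). cAMP measured by competitive HTRF immunoassay (d2-cAMP, cryptate anti-cAMP), signal inversely proportional to cAMP.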
On the technique in general: Time-resolved FRET reads energy transfer from a long-lived donor to a nearby acceptor.

Sequence of Human CB1R (Cannabinoid receptor 1) (P21554 whole entry): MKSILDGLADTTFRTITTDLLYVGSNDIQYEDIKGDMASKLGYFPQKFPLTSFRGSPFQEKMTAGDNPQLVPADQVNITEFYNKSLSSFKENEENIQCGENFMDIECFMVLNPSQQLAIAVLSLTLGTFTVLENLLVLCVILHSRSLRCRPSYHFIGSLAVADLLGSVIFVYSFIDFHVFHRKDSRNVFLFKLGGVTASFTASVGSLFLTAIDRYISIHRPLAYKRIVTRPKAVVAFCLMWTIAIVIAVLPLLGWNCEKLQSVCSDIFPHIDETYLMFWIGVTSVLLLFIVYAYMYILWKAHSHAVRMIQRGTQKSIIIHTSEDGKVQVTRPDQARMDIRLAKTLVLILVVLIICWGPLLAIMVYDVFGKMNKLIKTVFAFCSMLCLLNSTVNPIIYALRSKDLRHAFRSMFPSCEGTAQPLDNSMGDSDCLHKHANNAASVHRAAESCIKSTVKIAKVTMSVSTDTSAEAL
Sequence of Human CB2R (Cannabinoid receptor 2) (P34972 whole entry): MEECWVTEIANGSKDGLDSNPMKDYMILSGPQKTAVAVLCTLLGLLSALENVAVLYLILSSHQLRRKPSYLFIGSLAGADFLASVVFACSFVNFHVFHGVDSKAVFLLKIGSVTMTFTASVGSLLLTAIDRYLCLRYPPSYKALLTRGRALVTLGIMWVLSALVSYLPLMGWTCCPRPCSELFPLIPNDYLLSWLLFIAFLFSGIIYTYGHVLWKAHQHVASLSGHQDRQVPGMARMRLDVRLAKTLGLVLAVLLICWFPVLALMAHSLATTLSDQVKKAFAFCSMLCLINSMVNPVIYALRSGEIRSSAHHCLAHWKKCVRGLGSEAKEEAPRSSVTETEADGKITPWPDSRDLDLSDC

As to `NC(=O)CCC(=O)N1CCC(n2c(C3CC3)nc3ccc(C(c4ccc(Cl)cc4)c4ccc(Cl)cc4)cc32)CC1` [Example 273], the EC50 (commonly the concentration at which the effect is half-maximal) was 33.6 nM in experiment [1] and 9600 nM in experiment [2].

Consider `NC(=O)c1ccc(S(=O)(=O)N2CCC(n3c(C4CC4)nc4ccc(C(c5ccc(Cl)cc5)c5ccc(Cl)cc5)cc43)CC2)cc1` [Example 262], for which the EC50 in experiment [1] is 15.5 nM; in experiment [2], > 10000 nM.

In the case of `O=S(=O)(N1CCC(n2c(C3CCCO3)nc3ccc(C(O)(c4ccc(Cl)cc4)c4ccc(Cl)cc4)cc32)CC1)C(F)(F)F` (centres unmarked) [Example 285], the EC50 in experiment [1] was 3.4 nM; in experiment [2], > 10000 nM.

`O=C(O)Cc1cccc(N2CCC(n3c(C4CC4)nc4ccc(C(c5ccc(Cl)cc5)c5ccc(Cl)cc5)cc43)CC2)c1` [Example 158]: the EC50 was 67.9 nM in experiment [1] and 5800 nM in experiment [2].

`Clc1ccc(C(c2ccc3nc(-c4ccco4)n(-c4cccc(Cl)c4)c3c2)c2nccs2)cc1` (centres unmarked) [Example 377]: the EC50 in experiment [1] and in experiment [2] was > 10000 nM each time.

As for `COc1cccc(Cn2c(C3CC3)nc3ccc(C(c4ccc(Cl)cc4)c4ccc(Cl)cc4)cc32)c1` [Example 146], the EC50 in experiment [1] is 33.7 nM; in experiment [2] it was > 10000 nM.

Turning to `Nc1ccc(S(=O)(=O)N2CCC(n3c(C4CC4)nc4ccc(C(c5ccc(Cl)cc5)c5ccc(Cl)cc5)cc43)CC2)cc1` [Example 151], the EC50 in experiment [1] was 66.5 nM; in experiment [2] it was > 10000 nM.

On to `O=S(=O)(N1CCC(n2c(C3COC3)nc3ccc(C(O)(c4ccc(Cl)cc4)c4ccc(Cl)cc4)cc32)CC1)C(F)(F)F` [Example 255], for which the EC50 is 7.3 nM in experiment [1] and > 10000 nM in experiment [2].

For the compound `CCc1nc2ccc(C(c3ccc(Cl)cc3)c3nccs3)cc2n1CC1CCN(S(=O)(=O)C(F)(F)F)CC1` (centres unmarked) [Example 323], the EC50 is 16.5 nM in experiment [1] and > 10000 nM in experiment [2].

Turning to `OC(c1ccc(Cl)cc1)(c1ccc2nc(C3CC3)n(C3CCc4ccccc4C3)c2c1)c1nccs1` (centres unmarked) [Example 341], the EC50 is 1330 nM in experiment [1] and > 10000 nM in experiment [2].

As for `CC(C)(C)c1nc2ccc(C(O)(c3ccc(Cl)cc3)c3ccc(Cl)cc3)cc2n1C1CCN(S(=O)(=O)C(F)(F)F)CC1` [Example 292], the EC50 in experiment [1] was 2890 nM; in experiment [2] it was > 10000 nM.

Turning to `O=C(O)c1ccc(-c2cccc(CCn3c(C4CC4)nc4ccc(C(c5ccc(Cl)cc5)c5ccc(Cl)cc5)cc43)c2)cc1` [Example 17], the EC50 in experiment [1] was determined as 82.9 nM; in experiment [2], 9400 nM.

For the compound `NC(=O)c1ccc(CN2CCC(n3c(C4CC4)nc4ccc(C(c5ccc(Cl)cc5)c5ccc(Cl)cc5)cc43)CC2)nc1` [Example 122], the EC50 in experiment [1] came to 4.9 nM; in experiment [2], 9100 nM.

With `COc1ccc(S(=O)(=O)N2CCC(n3c(C4CC4)nc4ccc(C(c5ccc(Cl)cc5)c5ccc(Cl)cc5)cc43)CC2)cc1C(N)=O` [Example 187], the EC50 in experiment [1] was 51.8 nM; in experiment [2], > 10000 nM.

As to `Clc1ccc(Cn2cnc3ccc(C(c4ccc(Cl)cc4)c4nccs4)cc32)cc1` (centres unmarked) [Example 466], the half-maximal effective concentration (EC50) in experiment [1] is > 8700 nM; in experiment [2], 1430 nM.

Turning to `O=C(O)c1ccc(CN2CCC(n3c(C4CC4)nc4ccc(C(c5ccc(Cl)cc5)c5ccc(Cl)cc5)cc43)CC2)s1` [Example 128], the EC50 in experiment [1] stood at 6.9 nM; in experiment [2], 4890 nM.

As for `Oc1cccc(CN2CCC(n3c(C4CC4)nc4ccc(C(c5ccc(Cl)cc5)c5ccc(Cl)cc5)cc43)CC2)c1` [Example 90], the EC50 is 22.4 nM in experiment [1] and > 10000 nM in experiment [2].

With `O=C(O)c1ccnc(CN2CCC(n3c(C4CC4)nc4ccc(C(c5ccc(Cl)cc5)c5ccc(Cl)cc5)cc43)CC2)c1` [Example 88], the EC50 in experiment [1] was 33 nM; in experiment [2] it was > 10000 nM.

For `CCOC(=O)COc1ccc(-n2c(C3CC3)nc3ccc(C(c4ccc(Cl)cc4)c4ccc(Cl)cc4)cc32)cc1` [Example 170], the EC50 in experiment [1] was found to be 4.4 nM; in experiment [2] it was 314 nM.

Turning to `CCOC(=O)N1CCC(n2c(N)nc3ccc(C(c4ccc(Cl)cc4)c4nccs4)cc32)CC1` (centres unmarked) [Example 440], the 50% effective concentration (EC50) was 999 nM in experiment [1] and > 10000 nM in experiment [2].

As for `CCC(c1cccc(C(=O)O)c1)N1CCC(n2c(C3CC3)nc3ccc(C(c4ccc(Cl)cc4)c4ccc(Cl)cc4)cc32)CC1` (centres unmarked) [Example 49], the EC50 amounted to 8.5 nM in experiment [1] and 4400 nM in experiment [2].

`O=C(O)COc1cccc(N2CCC(n3c(C4CC4)nc4ccc(C(c5ccc(Cl)cc5)c5ccc(Cl)cc5)cc43)CC2)c1` [Example 154]: the figures for the EC50 in experiment [1] and in experiment [2] were 311 nM and 8000 nM, respectively.

`O=C(O)c1cccc(CN2CCC(n3c(C4CC4)nc4ccc(C(c5ccc(Cl)cc5)c5ccc(Cl)cc5)cc43)CC2)c1Cl` [Example 91]: the EC50 in experiment [1] came to 32.4 nM; in experiment [2], 9400 nM.

Consider `FC(F)(F)c1ccc(CCn2c(C3CC3)nc3ccc(C(c4ccc(Cl)cc4)c4ccc(Cl)cc4)cc32)cc1` [Example 309], for which the EC50 in experiment [1] is 3.4 nM; in experiment [2], 5200 nM.

Turning to `NC(=O)c1ccc(N2CCC(n3c(C4CC4)nc4ccc(C(c5ccc(Cl)cc5)c5ccc(Cl)cc5)cc43)CC2)cc1` [Example 161], the results for the EC50 in experiment [1] and in experiment [2] were 8 nM and 2110 nM, respectively.

In the case of `NC(=O)c1ccc(CN2CCC(n3c(C4CC4)nc4ccc(C(c5ccc(Cl)cc5)c5ccc(Cl)cc5)cc43)CC2)s1` [Example 126], the EC50 in experiment [1] was found to be 4.2 nM; in experiment [2], 7800 nM.

With `FC(F)(F)c1ccccc1CN1CCC(n2c(C3CC3)nc3ccc(C(c4ccc(Cl)cc4)c4ccc(Cl)cc4)cc32)CC1` [Example 84], the EC50 in experiment [1] was 67.7 nM; in experiment [2] it was > 10000 nM.

As to `O=C(O)c1cccc(-c2cccc(CCn3c(C4CC4)nc4ccc(C(c5ccc(Cl)cc5)c5ccc(Cl)cc5)cc43)c2)c1` [Example 11], the EC50 in experiment [1] is 49.4 nM; in experiment [2], 4970 nM.

As to `O=C(O)c1ccc(-c2cccc(CCn3c(C4CC4)nc4ccc(C(c5ccc(Cl)cc5)c5ccc(Cl)cc5)cc43)c2)s1` [Example 6], the EC50 in experiment [1] was 28.3 nM; in experiment [2] it was 3880 nM.

Regarding `O=S(=O)(N1CCC(Cn2c(C3CC3)nc3ccc(C(c4ccc(Cl)cc4)c4nccs4)cc32)CC1)C(F)(F)F` (centres unmarked) [Example 324], the figures for the EC50 in experiment [1] and in experiment [2] were 10.2 nM and 3880 nM, respectively.

Take `O=S(=O)(N1CCC(n2c(-c3cccnc3)nc3ccc(C(c4ccc(Cl)cc4)c4nccs4)cc32)CC1)C(F)(F)F` (centres unmarked) [Example 393]: the results for the EC50 in experiment [1] and in experiment [2] were 28 nM and 63 nM, respectively.

For the compound `NC(=O)COc1cccc(N2CCC(n3c(C4CC4)nc4ccc(C(c5ccc(Cl)cc5)c5ccc(Cl)cc5)cc43)CC2)c1` [Example 153], the EC50 in experiment [1] turned out to be 8.7 nM; in experiment [2], 3610 nM.

As to `CCCc1nc2ccc(C(c3ccc(Cl)cc3)c3nccs3)cc2n1CCc1cccc(Cl)c1` (centres unmarked) [Example 410], the EC50 in experiment [1] was 308 nM; in experiment [2], > 10000 nM.

Take `O=C(NCCCO)c1cccc(S(=O)(=O)N2CCC(n3c(C4CC4)nc4ccc(C(c5ccc(Cl)cc5)c5ccc(Cl)cc5)cc43)CC2)c1` [Example 191]: the EC50 in experiment [1] was 21 nM; in experiment [2], > 10000 nM.

With `Cc1ccc(C(c2ccc(Cl)cc2)c2ccc3nc(C4CC4)n(C4CCN(Cc5cccc(C(=O)O)c5)CC4)c3c2)cc1` (centres unmarked) [Example 100], the EC50 in experiment [1] is 19.4 nM; in experiment [2], 6300 nM.

Take `O=S(=O)(N1CCC(n2c(C3CCCC3)nc3ccc(C(c4ccc(Cl)cc4)c4nccs4)cc32)CC1)C(F)(F)F` (centres unmarked) [Example 395]: the EC50 in experiment [1] is 137 nM; in experiment [2], > 10000 nM.

For `O=C(O)Cc1ccc(N2CCC(n3c(C4CC4)nc4ccc(C(c5ccc(Cl)cc5)c5ccc(Cl)cc5)cc43)CC2)cc1` [Example 157], the results for the EC50 in experiment [1] and in experiment [2] were 190 nM and 3380 nM, respectively.

`Clc1ccc(C(c2ccc3nc(-c4ccc(Cl)cc4Cl)n(C4CCCCC4)c3c2)c2nccs2)cc1` (centres unmarked) [Example 444]: the EC50 in experiment [1] is 535 nM; in experiment [2], > 10000 nM.

For `CCOC(=O)N1CCC(n2cnc3ccc(C(c4ccc(Cl)cc4)c4nccs4)cc32)CC1` (centres unmarked) [Example 448], the results for the EC50 in experiment [1] and in experiment [2] were 100 nM and > 10000 nM, respectively.

Turning to `CCc1nc2ccc(C(c3ccc(Cl)cc3)c3ccc(Cl)cc3)cc2n1C1Cc2ccccc2C1` [Example 297], the EC50 in experiment [1] was 615 nM; in experiment [2], > 10000 nM.

Take `O=C(O)[C@H]1CC[C@H](n2c(C3CC3)nc3ccc(C(c4ccc(Cl)cc4)c4ccc(Cl)cc4)cc32)CC1` [Example 134]: the EC50 in experiment [1] is 4340 nM; in experiment [2], > 10000 nM.

As for `O=C(O)c1cncc(CN2CCC(n3c(C4CC4)nc4ccc(C(c5ccc(Cl)cc5)c5ccc(Cl)cc5)cc43)CC2)c1` [Example 123], the EC50 in experiment [1] was 13.4 nM; in experiment [2], 7500 nM.

Consider `CC(C)(C)c1nc2ccc(C(c3ccc(Cl)cc3)c3ccc(Cl)cc3)cc2n1C1CCN(S(=O)(=O)C(F)(F)F)CC1` [Example 291], for which the figures for the EC50 in experiment [1] and in experiment [2] were 2260 nM and > 10000 nM, respectively.

Regarding `FC(F)(F)c1csc(C(c2ccc(Cl)cc2)c2ccc3ncn(Cc4ccc(Cl)cc4)c3c2)n1` (centres unmarked) [Example 462], the EC50 in experiment [1] was > 10000 nM; in experiment [2], > 6600 nM.

As to `NC(=O)c1cc(S(=O)(=O)N2CCC(n3c(C4CC4)nc4ccc(C(c5ccc(Cl)cc5)c5ccc(Cl)cc5)cc43)CC2)ccc1F` [Example 217], the half-maximal effective concentration (EC50) was 9.2 nM in experiment [1] and > 10000 nM in experiment [2].

For the compound `CCCc1nc2ccc(C(c3ccc(Cl)cc3)c3nccs3)cc2n1C1CCN(S(=O)(=O)C(F)(F)F)CC1` (centres unmarked) [Example 399], the EC50 was 163 nM in experiment [1] and > 10000 nM in experiment [2].
